# Laboratory results: PubChem BioAssay AID1963968 (Molecular Pharmacology Branch, DTP, NCI, 2024)
# Test system: 945468-187-T-J3-PDC spheroids with HUVEC/MSC, viability
# Assay: Anticancer human tumor 945468-187-T-J3-PDC patient-derived rectal carcinoma cell line growth inhibition [PI3K]
# Conditions: for viability, T/C: stronger effect = lower value
# Description: Combinatorial screen of targeted agents with the PI3K inhibitors inavolisib, alpelisib, duvelisib, and copanlisib in multi-cell type tumor spheroids
# A high-throughput screen of multi-cell type tumor spheroids was designed to identify active combinations of targeted small molecules and PI3K pathway inhibitors. Complex spheroids include a stromal component modeled by human endothelial cells (HUVEC) and fibroblasts modeled by human mesenchymal stem cells (MSCs). The concentration ranges selected for each drug and investigational agent were based upon clinically achievable concentrations if the clinical Cmax of the agent was known.
# Compounds. The drugs and investigational agents: inavolisib (NSC800729), alpelisib (NSC765974), duvelisib (NSC772469), copanlisib (NSC816437), ipatasertib (NSC767898), afuresertib (NSC778305), talazoparib (NSC767125), sapanisertib (NSC764658), selumetinib (NSC741078), tovorafenib (DAY101, NSC766906), vemurafenib (NSC761431), ravoxertinib (NSC781343), sotorasib (NSC818433), MRTX1133 (NSC 836407), abemaciclib (NSC 768073), palbociclib (NSC758247), venetoclax (NSC 766270), SY5609 (NSC837396), enzalutamide (NSC755605), and darolutamide (NSC825331), were obtained from the National Cancer Institute (NCI) Developmental Therapeutics Program Chemical Repository. The FDA-approved anticancer drug set is available from the NCI Developmental Therapeutics Program. […] The stock solutions were prepared in dimethyl sulfoxide (DMSO, Sigma-Aldrich, St. Louis, MO, cat. D2650) at 800-fold the tested concentration and stored at -70 degrees C prior to their use. All drugs and investigational agents were tested over a range starting from a high concentration at or near the clinical Cmax and decreasing in half-log increments. If the clinical Cmax for an agent had not been determined, the highest concentration tested was 10 microM.
# Cell Culture. All cells were maintained in an incubator at 37 degrees C and 5% CO2 with 95% humidity. The PDC lines were cultured according to standard operating procedures established by the NCI PDMR (https://pdmr.cancer.gov/sops/default.htm). All PDCs were thawed and cultured in Matrigel-coated flasks prepared with a working solution of 1X Ham's F-12 nutrient mix, without supplementation (Invitrogen, Waltham, MA, cat. 11765054), 100 U/mL penicillin-streptomycin (Invitrogen, cat. 15140122), and 2.5% Matrigel (Corning Inc., Corning, NY, cat. 354248) for the first three passages. The 354836-022-R-J1-PDC, 475296-252-R-J1-PDC, and 997726-040-R-J2-PDC lines were cultured in 6A media, which includes advanced DMEM/F-12 (Thermo Fisher Scientific, cat. 12634028), 10 mM HEPES (Thermo Fisher Scientific, cat. 15630080), 1X GlutaMAX supplement (Thermo Fisher Scientific, cat. 35050061), 0.1 mg/mL primocin (InvivoGen, San Diego, CA, cat. ant-pm-2), 10% defined fetal bovine serum, heat inactivated (HyClone Laboratories Inc., Logan, UT, cat. SH30070.03HI), 50% L-WRN conditioned media (ATCC, cat. CRL-3276), 1.25 mM N-Acetyl-L-cysteine (Sigma-Aldrich, cat. A9165), 10 mM nicotinamide (Sigma-Aldrich, cat. N0636), 1X B-27 supplement (Thermo Fisher Scientific, cat. 17504044), 1X N-2 supplement (Thermo Fisher Scientific, cat. 17502048), and 10 microM Y-27632 dihydrochloride (Tocris Bioscience, Bristol, United Kingdom, cat. 1254). The 624824-186-R-J2-PDC line was cultured in 6C/Colon 1B media, which includes all 6A media components plus 50 ng/mL human EGF recombinant protein (Thermo Fisher Scientific, cat. PHG0311). […]
# [1] = curve of first compound, second compound 0.0316 µM
# [2] = curve of first compound, second compound 0.1 µM
# [3] = curve of first compound, second compound 0.316 µM
# [4] = curve of first compound, second compound 1 µM
# [5] = curve of first compound, second compound 3.16 µM
# [6] = curve of first compound, second compound 10 µM
# [7] = second compound 0.0316 µM, first compound 0.000316 µM
# [8] = second compound 0.0316 µM, first compound 0.001 µM
# [9] = second compound 0.0316 µM, first compound 0.00316 µM
# [10] = second compound 0.0316 µM, first compound 0.01 µM
# [11] = second compound 0.0316 µM, first compound 0.0316 µM
# [12] = second compound 0.0316 µM, first compound 0.1 µM
# [13] = second compound 0.1 µM, first compound 0.000316 µM
# [14] = second compound 0.1 µM, first compound 0.001 µM
# [15] = second compound 0.1 µM, first compound 0.00316 µM
# [16] = second compound 0.1 µM, first compound 0.01 µM
# [17] = second compound 0.1 µM, first compound 0.0316 µM
# [18] = second compound 0.1 µM, first compound 0.1 µM
# [19] = second compound 0.316 µM, first compound 0.000316 µM
# [20] = second compound 0.316 µM, first compound 0.001 µM
# [21] = second compound 0.316 µM, first compound 0.00316 µM
# [22] = second compound 0.316 µM, first compound 0.01 µM
# [23] = second compound 0.316 µM, first compound 0.0316 µM
# [24] = second compound 0.316 µM, first compound 0.1 µM
# [25] = second compound 1 µM, first compound 0.000316 µM
# [26] = second compound 1 µM, first compound 0.001 µM
# [27] = second compound 1 µM, first compound 0.00316 µM
# [28] = second compound 1 µM, first compound 0.01 µM
# [29] = second compound 1 µM, first compound 0.0316 µM
# [30] = second compound 1 µM, first compound 0.1 µM
# [31] = second compound 3.16 µM, first compound 0.000316 µM
# [32] = second compound 3.16 µM, first compound 0.001 µM
# [33] = second compound 3.16 µM, first compound 0.00316 µM
# [34] = second compound 3.16 µM, first compound 0.01 µM
# [35] = second compound 3.16 µM, first compound 0.0316 µM
# [36] = second compound 3.16 µM, first compound 0.1 µM
# [37] = second compound 10 µM, first compound 0.000316 µM
# [38] = second compound 10 µM, first compound 0.001 µM
# [39] = second compound 10 µM, first compound 0.00316 µM
# [40] = second compound 10 µM, first compound 0.01 µM
# [41] = second compound 10 µM, first compound 0.0316 µM
# [42] = second compound 10 µM, first compound 0.1 µM
# 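Also: spheroids exposed to agents for 7 days before viability read.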
# 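For viability, T/C in this document: 100% = DMSO vehicle control viability.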
smiles,measurement,setting,value
Cn1ncnc1[C@H]1c2n[nH]c(=O)c3cc(F)cc(c23)N[C@@H]1c1ccc(F)cc1 + Cc1nc(NC(=O)N2CCCC2C(N)=O)sc1-c1ccnc(C(C)(C)C(F)(F)F)c1,IC50,[1],> 0.1 µM
same,IC50,[2],> 0.1 µM
same,IC50,[3],> 0.1 µM
same,IC50,[4],> 0.1 µM
same,IC50,[5],> 0.1 µM
same,IC50,[6],> 0.1 µM
same,"viability, T/C",[7],96.6%
same,"viability, T/C",[8],102%
same,"viability, T/C",[9],101%
same,"viability, T/C",[10],116%
same,"viability, T/C",[11],116%
same,"viability, T/C",[12],114%
same,"viability, T/C",[13],105%
same,"viability, T/C",[14],105%
same,"viability, T/C",[15],91.8%
same,"viability, T/C",[16],106%
same,"viability, T/C",[17],120%
same,"viability, T/C",[18],100%
same,"viability, T/C",[19],111%
same,"viability, T/C",[20],103%
same,"viability, T/C",[21],92.6%
same,"viability, T/C",[22],118%
same,"viability, T/C",[23],115%
same,"viability, T/C",[24],105%
same,"viability, T/C",[25],118%
same,"viability, T/C",[26],109%
same,"viability, T/C",[27],89.9%
same,"viability, T/C",[28],115%
same,"viability, T/C",[29],99.8%
same,"viability, T/C",[30],97.4%
same,"viability, T/C",[31],116%
same,"viability, T/C",[32],103%
same,"viability, T/C",[33],98.7%
same,"viability, T/C",[34],109%
same,"viability, T/C",[35],107%
same,"viability, T/C",[36],103%
same,"viability, T/C",[37],58.2%
same,"viability, T/C",[38],68%
same,"viability, T/C",[39],61.3%
same,"viability, T/C",[40],53.3%
same,"viability, T/C",[41],63.7%
same,"viability, T/C",[42],51.3%
Cn1ncnc1[C@H]1c2n[nH]c(=O)c3cc(F)cc(c23)N[C@@H]1c1ccc(F)cc1 + CC(Nc1ncnc2nc[nH]c12)c1cc2cccc(Cl)c2c(=O)n1-c1ccccc1,IC50,[1],> 0.1 µM
same,IC50,[2],> 0.1 µM
same,IC50,[3],> 0.1 µM
same,IC50,[4],> 0.1 µM
same,IC50,[5],> 0.1 µM
same,IC50,[6],> 0.1 µM
same,"viability, T/C",[7],105%
same,"viability, T/C",[8],87.4%
same,"viability, T/C",[9],91.7%
same,"viability, T/C",[10],82.9%
same,"viability, T/C",[11],101%
same,"viability, T/C",[12],92.4%
same,"viability, T/C",[13],94.2%
same,"viability, T/C",[14],87.8%
same,"viability, T/C",[15],97.8%
same,"viability, T/C",[16],85.6%
same,"viability, T/C",[17],89.3%
same,"viability, T/C",[18],97.8%
same,"viability, T/C",[19],97.5%
same,"viability, T/C",[20],95.8%
same,"viability, T/C",[21],90.1%
same,"viability, T/C",[22],103%
same,"viability, T/C",[23],88%
same,"viability, T/C",[24],101%
same,"viability, T/C",[25],85.2%
same,"viability, T/C",[26],109%
same,"viability, T/C",[27],98.5%
same,"viability, T/C",[28],86.8%
same,"viability, T/C",[29],104%
same,"viability, T/C",[30],105%
same,"viability, T/C",[31],103%
same,"viability, T/C",[32],99.8%
same,"viability, T/C",[33],95.1%
same,"viability, T/C",[34],100%
same,"viability, T/C",[35],102%
same,"viability, T/C",[36],104%
same,"viability, T/C",[37],101%
same,"viability, T/C",[38],97.5%
same,"viability, T/C",[39],106%
same,"viability, T/C",[40],95.7%
same,"viability, T/C",[41],96.9%
same,"viability, T/C",[42],102%
CCCS(=O)(=O)Nc1ccc(F)c(C(=O)c2c[nH]c3ncc(-c4ccc(Cl)cc4)cc23)c1F,"viability, T/C",compound 0.0316 µM,105% [middle of 4 runs]
same,"viability, T/C",compound 0.1 µM,97.1% [middle of 4 runs]
same,"viability, T/C",compound 1 µM,102% [middle of 4 runs]
same,"viability, T/C",compound 3.16 µM,103% [middle of 4 runs]
same,IC50,curve of compound,6.88 µM [middle of 4 runs]
CCCS(=O)(=O)Nc1ccc(F)c(C(=O)c2c[nH]c3ncc(-c4ccc(Cl)cc4)cc23)c1F + Cc1nc(NC(=O)N2CCCC2C(N)=O)sc1-c1ccnc(C(C)(C)C(F)(F)F)c1,IC50,[1],6.38 µM
same,IC50,[2],7.05 µM
same,IC50,[3],8.19 µM
same,IC50,[4],> 10 µM
same,IC50,[5],7.2 µM
same,IC50,[6],1.84 µM
same,"viability, T/C",[11],99.8%
same,"viability, T/C",[12],109%
same,"viability, T/C","second compound 0.0316 µM, first compound 0.316 µM",87.1%
same,"viability, T/C","second compound 0.0316 µM, first compound 1 µM",103%
same,"viability, T/C","second compound 0.0316 µM, first compound 3.16 µM",107%
same,"viability, T/C","second compound 0.0316 µM, first compound 10 µM",17.1%
same,"viability, T/C",[17],111%
same,"viability, T/C",[18],98%
same,"viability, T/C","second compound 0.1 µM, first compound 0.316 µM",93.3%
same,"viability, T/C","second compound 0.1 µM, first compound 1 µM",105%
same,"viability, T/C","second compound 0.1 µM, first compound 3.16 µM",107%
same,"viability, T/C","second compound 0.1 µM, first compound 10 µM",26.9%
same,"viability, T/C",[23],109%
same,"viability, T/C",[24],101%
same,"viability, T/C","second compound 0.316 µM, first compound 0.316 µM",100%
same,"viability, T/C","second compound 0.316 µM, first compound 1 µM",119%
same,"viability, T/C","second compound 0.316 µM, first compound 3.16 µM",108%
same,"viability, T/C","second compound 0.316 µM, first compound 10 µM",37.9%
same,"viability, T/C",[29],119%
same,"viability, T/C",[30],116%
same,"viability, T/C","second compound 1 µM, first compound 0.316 µM",112%
same,"viability, T/C","second compound 1 µM, first compound 1 µM",114%
same,"viability, T/C","second compound 1 µM, first compound 3.16 µM",104%
same,"viability, T/C","second compound 1 µM, first compound 10 µM",56.9%
same,"viability, T/C",[35],106%
same,"viability, T/C",[36],110%
same,"viability, T/C","second compound 3.16 µM, first compound 0.316 µM",101%
same,"viability, T/C","second compound 3.16 µM, first compound 1 µM",99.7%
same,"viability, T/C","second compound 3.16 µM, first compound 3.16 µM",96.3%
same,"viability, T/C","second compound 3.16 µM, first compound 10 µM",31.2%
same,"viability, T/C",[41],67.1%
same,"viability, T/C",[42],52.8%
same,"viability, T/C","second compound 10 µM, first compound 0.316 µM",53.3%
same,"viability, T/C","second compound 10 µM, first compound 1 µM",64.9%
same,"viability, T/C","second compound 10 µM, first compound 3.16 µM",41.5%
same,"viability, T/C","second compound 10 µM, first compound 10 µM",5.18%
